Four compounds from ChEMBL document CHEMBL1127625, “Modulation of the kynurenine pathway in search for new neuroprotective agents. Synthesis and preliminary evaluation of (m-nitrobenzoyl)alanine, a potent inhibitor of kynurenine-3-hydroxylase” (J Med Chem, 1994) can be followed below.

Data set [1] relates to Mus musculus. As to the kind of experiment: Sedative and anticonvulsant effects at dose 200 mg/kg, administered intraperitoneally; value expressed as clonic /tested =6/13. Type of data set: functional. The note with it: route intraperitoneal.
Data set [2] deals with Mus musculus. As to the kind of experiment: Sedative and anticonvulsant effects at dose 400 mg/kg, administered intraperitoneally; value expressed as death /tested =2/6. In kind it is organism-based. Also noted: dose 400 mg/kg, route intraperitoneal. The note with it: in vivo, ip.
Data set [3] relates to Mus musculus. As to the kind of experiment: Sedative and anticonvulsant effects at dose 200 mg/kg, administered intraperitoneally; value expressed as tonic /tested =1/13. In kind it is functional. Conditions: route intraperitoneal.
Data set [4] concerns Mus musculus. Put plainly: Sedative and anticonvulsant effects at dose 400 mg/kg, administered intraperitoneally; value expressed as tonic /tested =2/6. In kind it is functional. Conditions: route intraperitoneal.
In data set [5] the test system is Rattus norvegicus. Put plainly: Effect on […] (KYN) content in rat liver at dose 400 mg/kg administered intraperitoneally. In kind it is functional. The note with it: route intraperitoneal.
The target of another data set is T1, Kynureninase (Rattus norvegicus, UniProt P70712).
T1 sequence (P70712 whole entry): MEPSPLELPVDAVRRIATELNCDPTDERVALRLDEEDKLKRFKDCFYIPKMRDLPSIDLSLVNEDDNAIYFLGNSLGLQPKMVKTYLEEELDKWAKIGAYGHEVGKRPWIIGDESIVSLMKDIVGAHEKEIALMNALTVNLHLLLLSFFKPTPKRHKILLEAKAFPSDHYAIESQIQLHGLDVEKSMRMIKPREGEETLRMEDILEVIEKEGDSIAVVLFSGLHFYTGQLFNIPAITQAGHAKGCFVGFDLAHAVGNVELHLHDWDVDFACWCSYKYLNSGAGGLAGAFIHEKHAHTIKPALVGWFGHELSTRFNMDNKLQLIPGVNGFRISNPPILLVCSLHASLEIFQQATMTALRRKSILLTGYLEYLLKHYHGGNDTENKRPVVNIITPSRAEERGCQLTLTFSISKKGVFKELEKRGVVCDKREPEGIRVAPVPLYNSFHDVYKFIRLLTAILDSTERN
Put plainly: Ability to inhibit kynureninase was determined in a competitive inhibition assay.

Data set [6] deals with Rattus norvegicus. Put plainly: Effect on kynurenic acid (KYNA) content in rat blood at dose 400 mg/kg administered intraperitoneally. In kind it is functional. Conditions: route intraperitoneal.
For data set [7], the system named is Rattus norvegicus. Put plainly: Effect on kynurenic acid (KYNA) content in rat brain at dose 400 mg/kg administered intraperitoneally. Type of data set: functional. Conditions: route intraperitoneal.
Data set [8] deals with Mus musculus. Put plainly: Sedative and anticonvulsant effects at dose 200 mg/kg, administered intraperitoneally; value expressed as death /tested =0/13. In kind it is ADME, organism-based. Set-up: dose 200 mg/kg, route intraperitoneal. The note with it: in vivo, ip.
Data set [9] deals with Rattus norvegicus. Put plainly: Effect on […] (KYN) content in rat blood at dose 400 mg/kg administered intraperitoneally. Type of data set: functional. Conditions: route intraperitoneal.
Data set [10] concerns Mus musculus. Put plainly: Sedative and anticonvulsant effects at dose 400 mg/kg, administered intraperitoneally; value expressed as clonic /tested =4/6. Type of data set: functional. The note with it: route intraperitoneal.
Data set [11] relates to Rattus norvegicus. Put plainly: Effect on kynurenic acid (KYNA) content in rat liver at dose 400 mg/kg administered intraperitoneally. In kind it is functional. Conditions: route intraperitoneal.
Data set [12] relates to Rattus norvegicus. Put plainly: Effect on […] (KYN) content in rat brain at dose 400 mg/kg administered intraperitoneally. In kind it is functional. Conditions: route intraperitoneal.
The target in data set [13] is Kynurenine 3-monooxygenase (Rattus norvegicus) (UniProt O88867). As to the kind of experiment: Differences in inhibition of kynurenine-3-hydroxylase by m-NBA versus compound is determined.
Sequence of Kynurenine 3-monooxygenase (Rattus norvegicus) (O88867 whole entry, looked up): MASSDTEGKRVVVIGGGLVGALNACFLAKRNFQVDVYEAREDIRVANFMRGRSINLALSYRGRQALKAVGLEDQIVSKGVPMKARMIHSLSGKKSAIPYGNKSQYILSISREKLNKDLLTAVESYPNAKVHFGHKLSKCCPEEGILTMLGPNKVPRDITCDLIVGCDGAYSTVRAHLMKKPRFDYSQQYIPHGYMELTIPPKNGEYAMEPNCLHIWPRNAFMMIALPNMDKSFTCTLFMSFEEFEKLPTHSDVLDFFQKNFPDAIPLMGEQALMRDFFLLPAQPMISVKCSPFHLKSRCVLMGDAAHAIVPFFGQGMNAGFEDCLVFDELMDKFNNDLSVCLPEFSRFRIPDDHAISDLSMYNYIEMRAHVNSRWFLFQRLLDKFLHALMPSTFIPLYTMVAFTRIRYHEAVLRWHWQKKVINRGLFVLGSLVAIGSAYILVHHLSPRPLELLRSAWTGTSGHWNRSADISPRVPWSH
For data set [14], the target named is Kynurenine 3-monooxygenase (Rattus norvegicus, UniProt O88867). Put plainly: Ability to inhibit kynurenine-3-hydroxylase was determined in a competitive inhibition assay.
Sequence of Kynurenine 3-monooxygenase (O88867 whole entry): as the sequence (O88867 whole entry, looked up) above

Structures are written as SMILES.

Broadly, the IC50 is the concentration that inhibits the measured activity by half. The low end stands for greater potency, the high end for weaker potency. `NC(CC(=O)c1cccc([N+](=O)[O-])c1)C(=O)O` (configuration not stated): the figures for the Clonic with Mus musculus [1] and in the data set with Mus musculus [10] were 6 and 4, respectively. Moreover, the Death is 2 with Mus musculus [2] and 0 with Mus musculus [8]. In addition, the Tonic in the data set on Mus musculus [3] turned out to be 1; in the data set with Mus musculus [4] it was 2. The Effect with Rattus norvegicus [5] came out at 4000 pmol/g; with Rattus norvegicus [6] it was 120 pmol/g; in the data set with Rattus norvegicus [7], 150 pmol/g; in the data set with Rattus norvegicus [9] it was 16000 pmol/g; in the data set on Rattus norvegicus [11] it was 250 pmol/g; in the data set with Rattus norvegicus [12], 4000 pmol/g. The compound also gave a 50% inhibitory concentration (IC50) at Kynureninase of 100 µM.

As for `NC(CC(=O)c1ccc([N+](=O)[O-])cc1)C(=O)O` (configuration not stated), in [13], the -Log IC50/IC50 was found to be 2.52. The values for the IC50 (in data set [14]; on Kynureninase) were 300 µM and 900 µM, respectively.

In data set [13], `NC(CC(=O)c1cccnc1)C(=O)O` (configuration not stated) [NICOTINOYLALANINENAL] came in with a -Log IC50/IC50 of 2.89. Also, the IC50 in [14] was determined as 900 µM; at Kynureninase it was 800 µM.

`NC(CC(=O)c1ccccc1[N+](=O)[O-])C(=O)O` (configuration not stated) [(ortho-nitrobenzoyl)alanine] gave a -Log IC50/IC50 in data set [13] of 2.94. Moreover, the half-inhibitory concentration (IC50) in data set [14] was found to be 2000 µM; at Kynureninase it was 100 µM.
